Among the data in ChEMBL document CHEMBL5291721, “A preclinical secondary pharmacology resource illuminates target-adverse drug reaction associations of marketed drugs” (Nat Commun, 2023) are AC50 values, retold here.

SMILES strings stand for the structures.

Targets include Vasopressin V2 receptor (Homo sapiens, UniProt P30518); Mu-type opioid receptor (Homo sapiens, UniProt P35372); Melanocortin receptor 3 (Homo sapiens, UniProt P41968); D(3) dopamine receptor (Homo sapiens, UniProt P35462); Adenosine receptor A2a (Homo sapiens, UniProt P29274).
Assay [1] concerns the target Sodium-dependent noradrenaline transporter (Homo sapiens, UniProt P23975).
In assay [2] the target is T1, Alpha-2A adrenergic receptor (Homo sapiens, UniProt P08913).
T1 sequence (P08913 whole entry): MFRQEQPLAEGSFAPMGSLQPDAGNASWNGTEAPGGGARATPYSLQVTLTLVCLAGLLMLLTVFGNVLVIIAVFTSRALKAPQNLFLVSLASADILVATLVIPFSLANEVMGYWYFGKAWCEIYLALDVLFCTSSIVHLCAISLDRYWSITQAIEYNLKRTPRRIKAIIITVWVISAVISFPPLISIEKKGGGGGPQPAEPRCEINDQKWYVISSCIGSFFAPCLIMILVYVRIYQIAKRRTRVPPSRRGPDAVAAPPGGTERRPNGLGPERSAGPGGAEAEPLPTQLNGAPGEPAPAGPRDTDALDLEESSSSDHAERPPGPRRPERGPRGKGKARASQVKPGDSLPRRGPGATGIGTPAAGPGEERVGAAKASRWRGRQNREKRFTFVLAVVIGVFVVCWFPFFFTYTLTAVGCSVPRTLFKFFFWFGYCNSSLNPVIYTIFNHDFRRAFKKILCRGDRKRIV
The format is functional, cell-based.

In assay [3] the target is T2, Muscarinic acetylcholine receptor M2 (Homo sapiens, UniProt P08172).
T2 sequence (P08172 whole entry): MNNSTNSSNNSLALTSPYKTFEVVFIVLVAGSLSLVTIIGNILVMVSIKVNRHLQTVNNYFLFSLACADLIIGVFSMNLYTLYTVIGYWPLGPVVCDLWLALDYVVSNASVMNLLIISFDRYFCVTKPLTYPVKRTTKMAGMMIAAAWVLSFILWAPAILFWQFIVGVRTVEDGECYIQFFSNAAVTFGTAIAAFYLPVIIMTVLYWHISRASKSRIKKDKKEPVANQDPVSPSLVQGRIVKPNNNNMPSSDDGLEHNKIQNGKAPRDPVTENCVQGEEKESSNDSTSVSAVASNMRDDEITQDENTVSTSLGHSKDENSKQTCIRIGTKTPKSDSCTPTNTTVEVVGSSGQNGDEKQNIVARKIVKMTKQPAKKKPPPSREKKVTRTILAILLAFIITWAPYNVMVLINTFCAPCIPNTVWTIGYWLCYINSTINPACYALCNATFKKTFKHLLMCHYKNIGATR
The format is functional, cell-based.

The target of assay [4] is Growth hormone secretagogue receptor type 1 (Homo sapiens, UniProt Q92847).
A further assay addresses T3, Adenosine receptor A3 (Homo sapiens, UniProt P0DMS8).
T3 sequence (P0DMS8 whole entry): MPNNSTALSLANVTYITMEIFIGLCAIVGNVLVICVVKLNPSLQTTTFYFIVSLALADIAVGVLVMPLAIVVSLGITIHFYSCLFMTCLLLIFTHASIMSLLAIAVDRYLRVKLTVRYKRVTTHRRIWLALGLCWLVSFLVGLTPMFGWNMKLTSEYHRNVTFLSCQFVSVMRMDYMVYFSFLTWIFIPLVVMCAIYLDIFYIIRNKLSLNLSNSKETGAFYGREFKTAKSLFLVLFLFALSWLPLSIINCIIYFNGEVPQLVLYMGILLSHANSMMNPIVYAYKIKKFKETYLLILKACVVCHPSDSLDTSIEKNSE

In assay [5] the target is T4, 5-hydroxytryptamine receptor 1A (Homo sapiens, UniProt P08908).
T4 sequence (P08908 whole entry): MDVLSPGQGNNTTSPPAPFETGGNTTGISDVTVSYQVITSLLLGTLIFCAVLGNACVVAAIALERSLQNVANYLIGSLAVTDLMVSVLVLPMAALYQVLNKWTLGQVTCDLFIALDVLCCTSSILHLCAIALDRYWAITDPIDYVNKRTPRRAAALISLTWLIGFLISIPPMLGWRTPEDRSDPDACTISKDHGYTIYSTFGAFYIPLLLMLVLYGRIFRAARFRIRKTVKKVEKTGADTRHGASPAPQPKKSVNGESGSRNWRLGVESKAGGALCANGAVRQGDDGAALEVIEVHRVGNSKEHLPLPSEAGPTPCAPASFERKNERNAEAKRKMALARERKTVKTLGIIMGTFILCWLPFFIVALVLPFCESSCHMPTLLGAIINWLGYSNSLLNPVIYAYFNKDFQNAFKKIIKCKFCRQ
The format is functional, cell-based.

The target in a further assay is Histamine H2 receptor (Homo sapiens, UniProt P25021). The format is functional, cell-based.
Assay [6] concerns the target Voltage-dependent L-type calcium channel subunit alpha-1C (Rattus norvegicus, UniProt P22002). The format is functional.
Further: assay procedure not described here.

Sodium-dependent noradrenaline transporter, sequence (P23975 whole entry): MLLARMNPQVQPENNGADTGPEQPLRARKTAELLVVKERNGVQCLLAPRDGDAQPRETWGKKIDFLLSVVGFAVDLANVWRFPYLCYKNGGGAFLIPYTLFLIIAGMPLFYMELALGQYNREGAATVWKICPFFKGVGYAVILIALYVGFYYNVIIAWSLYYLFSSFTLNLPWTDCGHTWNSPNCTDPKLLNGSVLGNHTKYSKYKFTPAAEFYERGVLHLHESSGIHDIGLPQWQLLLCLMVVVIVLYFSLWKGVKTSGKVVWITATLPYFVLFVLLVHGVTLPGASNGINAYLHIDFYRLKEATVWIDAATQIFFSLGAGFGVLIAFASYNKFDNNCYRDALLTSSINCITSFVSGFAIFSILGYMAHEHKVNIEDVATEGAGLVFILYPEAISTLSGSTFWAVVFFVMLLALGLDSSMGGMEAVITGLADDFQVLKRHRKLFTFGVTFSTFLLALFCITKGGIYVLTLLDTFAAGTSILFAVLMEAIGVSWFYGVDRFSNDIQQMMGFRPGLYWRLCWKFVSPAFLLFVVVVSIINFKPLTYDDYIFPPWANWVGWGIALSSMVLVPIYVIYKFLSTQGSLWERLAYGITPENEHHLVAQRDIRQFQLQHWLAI
Vasopressin V2 receptor, sequence (P30518 whole entry): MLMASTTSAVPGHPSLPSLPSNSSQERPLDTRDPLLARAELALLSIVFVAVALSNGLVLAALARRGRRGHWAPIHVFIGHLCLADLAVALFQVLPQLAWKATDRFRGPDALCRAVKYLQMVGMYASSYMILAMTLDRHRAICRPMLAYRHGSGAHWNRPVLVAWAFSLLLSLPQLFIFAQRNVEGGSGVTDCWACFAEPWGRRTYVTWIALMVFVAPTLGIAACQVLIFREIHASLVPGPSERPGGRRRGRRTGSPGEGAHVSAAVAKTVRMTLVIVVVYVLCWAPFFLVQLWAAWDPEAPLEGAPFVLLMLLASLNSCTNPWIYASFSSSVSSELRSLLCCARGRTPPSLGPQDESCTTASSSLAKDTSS
Adenosine receptor A2a, sequence (P29274 whole entry): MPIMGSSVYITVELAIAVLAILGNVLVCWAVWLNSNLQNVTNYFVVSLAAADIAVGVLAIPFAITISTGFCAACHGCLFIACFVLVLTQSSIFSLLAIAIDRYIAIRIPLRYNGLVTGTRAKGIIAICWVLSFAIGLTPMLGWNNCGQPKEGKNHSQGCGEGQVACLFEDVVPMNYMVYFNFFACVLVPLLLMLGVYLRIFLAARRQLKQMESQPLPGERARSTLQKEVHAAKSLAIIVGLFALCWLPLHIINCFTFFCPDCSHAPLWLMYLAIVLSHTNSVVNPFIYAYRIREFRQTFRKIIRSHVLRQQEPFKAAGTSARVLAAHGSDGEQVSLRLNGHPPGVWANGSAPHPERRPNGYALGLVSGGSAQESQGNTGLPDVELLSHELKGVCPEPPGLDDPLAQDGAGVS
Mu-type opioid receptor, sequence (P35372 whole entry): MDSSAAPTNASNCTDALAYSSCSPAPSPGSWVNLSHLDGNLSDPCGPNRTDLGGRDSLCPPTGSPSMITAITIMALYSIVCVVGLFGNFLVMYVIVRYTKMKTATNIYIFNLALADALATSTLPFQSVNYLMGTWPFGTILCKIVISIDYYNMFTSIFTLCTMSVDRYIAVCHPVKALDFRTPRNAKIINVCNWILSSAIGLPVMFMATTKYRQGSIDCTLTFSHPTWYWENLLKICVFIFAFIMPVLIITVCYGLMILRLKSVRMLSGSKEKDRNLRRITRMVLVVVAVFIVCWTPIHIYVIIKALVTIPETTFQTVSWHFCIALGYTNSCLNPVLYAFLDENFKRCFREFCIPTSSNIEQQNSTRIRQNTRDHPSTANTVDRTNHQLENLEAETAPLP
Histamine H2 receptor, sequence (P25021 whole entry): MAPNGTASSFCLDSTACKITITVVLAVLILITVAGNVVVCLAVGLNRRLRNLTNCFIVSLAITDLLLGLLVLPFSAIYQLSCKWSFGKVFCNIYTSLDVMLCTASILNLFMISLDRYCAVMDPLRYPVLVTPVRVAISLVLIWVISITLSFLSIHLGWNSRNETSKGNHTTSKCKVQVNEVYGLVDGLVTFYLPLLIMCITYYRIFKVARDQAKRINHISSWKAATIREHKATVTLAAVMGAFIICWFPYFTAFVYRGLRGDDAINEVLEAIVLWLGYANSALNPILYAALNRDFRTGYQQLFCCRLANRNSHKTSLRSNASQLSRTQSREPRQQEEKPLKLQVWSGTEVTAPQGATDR
Growth hormone secretagogue receptor type 1, sequence (Q92847 whole entry): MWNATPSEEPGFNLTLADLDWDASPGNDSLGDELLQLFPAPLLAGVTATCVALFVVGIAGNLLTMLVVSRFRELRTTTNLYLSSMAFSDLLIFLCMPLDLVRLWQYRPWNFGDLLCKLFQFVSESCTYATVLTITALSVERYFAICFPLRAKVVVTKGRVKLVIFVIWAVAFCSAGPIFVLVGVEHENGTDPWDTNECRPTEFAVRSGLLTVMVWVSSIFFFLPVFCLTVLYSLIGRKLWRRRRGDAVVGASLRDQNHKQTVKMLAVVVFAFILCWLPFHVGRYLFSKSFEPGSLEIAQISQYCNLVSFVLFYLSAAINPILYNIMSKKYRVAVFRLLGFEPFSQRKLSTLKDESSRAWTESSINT
Melanocortin receptor 3, sequence (P41968 whole entry): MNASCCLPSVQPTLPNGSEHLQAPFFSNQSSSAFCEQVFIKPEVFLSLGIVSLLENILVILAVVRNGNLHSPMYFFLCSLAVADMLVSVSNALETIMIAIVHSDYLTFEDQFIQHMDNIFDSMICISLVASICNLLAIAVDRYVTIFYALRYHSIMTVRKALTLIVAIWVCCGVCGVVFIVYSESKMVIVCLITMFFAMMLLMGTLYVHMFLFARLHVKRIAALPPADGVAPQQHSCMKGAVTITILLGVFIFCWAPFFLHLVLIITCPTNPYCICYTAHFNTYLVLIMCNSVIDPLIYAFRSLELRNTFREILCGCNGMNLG
D(3) dopamine receptor, sequence (P35462 whole entry): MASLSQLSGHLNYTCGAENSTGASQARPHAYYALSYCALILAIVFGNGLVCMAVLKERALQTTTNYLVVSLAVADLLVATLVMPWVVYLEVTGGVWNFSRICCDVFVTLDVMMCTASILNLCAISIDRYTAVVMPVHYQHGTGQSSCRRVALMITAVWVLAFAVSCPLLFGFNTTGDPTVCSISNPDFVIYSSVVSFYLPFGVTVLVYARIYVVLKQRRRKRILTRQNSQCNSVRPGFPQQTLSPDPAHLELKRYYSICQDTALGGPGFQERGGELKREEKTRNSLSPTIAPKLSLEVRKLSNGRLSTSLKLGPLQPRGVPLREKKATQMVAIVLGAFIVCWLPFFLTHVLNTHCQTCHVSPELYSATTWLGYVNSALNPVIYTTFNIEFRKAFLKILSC

Consider `C[C@@H](NCCCc1cccc(C(F)(F)F)c1)c1cccc2ccccc12`, for which the AC50 in [1] is 7.2 µM; on Vasopressin V2 receptor, 20 µM; at Mu-type opioid receptor, 2.5 µM; in assay [2], over 30 µM; on Melanocortin receptor 3, 13 µM; in [3], over 30 µM. For the same compound, the AC50 in assay [4] is 10 µM; on Adenosine receptor A3, 8.1 µM; at D(3) dopamine receptor, 1.5 µM; on Adenosine receptor A2a, over 30 µM; in [5], over 30 µM; on Histamine H2 receptor, over 30 µM.

As to `COc1ccc(CC2c3cc(OC)c(OC)cc3CC[N+]2(C)CCC(=O)OCCCCCOC(=O)CC[N+]2(C)CCc3cc(OC)c(OC)cc3C2Cc2ccc(OC)c(OC)c2)cc1OC` (stereo unspecified), the AC50 in [1] was 11.3 µM; on Vasopressin V2 receptor, over 30 µM; in [2], over 30 µM; at Melanocortin receptor 3, over 30 µM; in assay [3], over 30 µM; in assay [4], 11.2 µM. Also, the AC50 (on Adenosine receptor A3; on D(3) dopamine receptor; at Adenosine receptor A2a; in assay [5]; on Histamine H2 receptor; in assay [6]) was over 30 µM each time.

For `CCN1CCN(Cc2ccc(Nc3ncc(F)c(-c4cc(F)c5nc(C)n(C(C)C)c5c4)n3)nc2)CC1` [ABEMACICLIB], the concentration at half-maximal activity (AC50) (in assay [1]; on Mu-type opioid receptor; in assay [2]; at Melanocortin receptor 3; in [3]; in assay [4]) was over 30 µM throughout. In addition, the AC50 (at Adenosine receptor A3; on D(3) dopamine receptor; on Adenosine receptor A2a; in assay [5]) was over 30 µM each time.

Consider `C[C@@H](Oc1cc(-c2cnn(C3CCNCC3)c2)cnc1N)c1c(Cl)ccc(F)c1Cl` [CRIZOTINIB], for which the AC50 in [1] is 7.96 µM; on Vasopressin V2 receptor, over 30 µM; on Mu-type opioid receptor, over 30 µM; in assay [2], over 30 µM; on Melanocortin receptor 3, 19.9 µM; in assay [3] it was over 10 µM. For the same compound, the AC50 in [4] is 13.9 µM; on Adenosine receptor A3 it was 8.93 µM; on D(3) dopamine receptor, over 30 µM; at Adenosine receptor A2a, over 30 µM; in [5], over 10 µM; in [6] it was 1.56 µM.

For `CN(C)CC[C@@H](c1ccc(Cl)cc1)c1ccccn1` [DEXCHLORPHENIRAMINE], the AC50 in [1] is 18 µM; on Vasopressin V2 receptor, over 30 µM; in assay [2], over 30 µM; on Melanocortin receptor 3, over 30 µM; in assay [3], over 30 µM; in assay [4] it was over 30 µM. The AC50 (on Adenosine receptor A3; at D(3) dopamine receptor; on Adenosine receptor A2a; in assay [5]; at Histamine H2 receptor; in [6]) was over 30 µM each time.

Consider `CN1C[C@H](C(=O)N[C@]2(C)O[C@@]3(O)[C@@H]4CCCN4C(=O)[C@H](Cc4ccccc4)N3C2=O)C=C2c3cccc4[nH]cc(c34)C[C@H]21` [ERGOTAMINE], for which the AC50 in assay [1] is over 30 µM; on Mu-type opioid receptor, over 30 µM; in assay [2], over 10 µM; on Melanocortin receptor 3, over 30 µM; in assay [3] it was over 30 µM; in assay [4] it was over 30 µM. Moreover, the AC50 at Adenosine receptor A3 was over 30 µM; on D(3) dopamine receptor, 1.6 µM; on Adenosine receptor A2a it was over 30 µM; in assay [5], 0.22 µM.

Turning to `CN(C)CCC[C@@]1(c2ccc(F)cc2)OCc2cc(C#N)ccc21` [ESCITALOPRAM], the AC50 (on Vasopressin V2 receptor; in [2]; at Melanocortin receptor 3; in assay [4]; on Adenosine receptor A3; on Adenosine receptor A2a) was over 30 µM in each case. This compound also gave an AC50 in assay [5] of over 30 µM.

Turning to `C=C[C@H]1C[N@@]2CC[C@H]1C[C@@H]2[C@@H](O)c1ccnc2ccc(OC)cc12` [QUINIDINE], the AC50 is over 30 µM in assay [1]; over 30 µM at Vasopressin V2 receptor; 6.2 µM on Mu-type opioid receptor; over 10 µM in [2]; over 30 µM on Melanocortin receptor 3; over 10 µM in assay [3]. In addition, the AC50 was over 30 µM in assay [4]; over 30 µM at Adenosine receptor A3; 2.8 µM on D(3) dopamine receptor; over 30 µM on Adenosine receptor A2a; over 30 µM in assay [5]; over 10 µM at Histamine H2 receptor.

In the case of `CC(C)c1nc(N(C)S(C)(=O)=O)nc(-c2ccc(F)cc2)c1/C=C/[C@@H](O)C[C@@H](O)CC(=O)O` [ROSUVASTATIN], the AC50 (in assay [1]; at Vasopressin V2 receptor; at Mu-type opioid receptor; in [2]; at Melanocortin receptor 3; in [3]) was over 30 µM throughout. Further, the AC50 (in [4]; at Adenosine receptor A3; on D(3) dopamine receptor; on Adenosine receptor A2a; in assay [5]; at Histamine H2 receptor) was over 30 µM throughout.

Regarding `N[C@@H](CC(=O)N1CCn2c(nnc2C(F)(F)F)C1)Cc1cc(F)c(F)cc1F` [SITAGLIPTIN], the AC50 (in assay [1]; at Mu-type opioid receptor; in assay [2]; on Melanocortin receptor 3; in assay [3]; in assay [4]) was over 30 µM in each case. The AC50 was over 30 µM on Adenosine receptor A3; over 30 µM on D(3) dopamine receptor; over 30 µM at Adenosine receptor A2a; over 30 µM in assay [5]; over 10 µM in assay [6].

`CC(C)(C)NCC(O)c1cc(O)cc(O)c1` (stereo unspecified) [TERBUTALINE]: the AC50 (in [1]; at Vasopressin V2 receptor; at Melanocortin receptor 3; in assay [4]; on Adenosine receptor A3; on Adenosine receptor A2a) was over 30 µM throughout.

Take `CC(S)C(=O)NCC(=O)O` (stereo unspecified) [TIOPRONIN]: the AC50 (in assay [1]; on Mu-type opioid receptor; in assay [2]; at Melanocortin receptor 3; in assay [3]; in assay [4]) was over 30 µM throughout. Also, the AC50 (at Adenosine receptor A3; on D(3) dopamine receptor; on Adenosine receptor A2a; in assay [5]) was over 30 µM each time.

`C[C@H](CCC(=O)O)[C@H]1CC[C@H]2[C@@H]3[C@@H](O)C[C@@H]4C[C@H](O)CC[C@]4(C)[C@H]3CC[C@]12C` [URSODIOL]: the AC50 (in assay [1]; at Mu-type opioid receptor; in assay [2]; on Melanocortin receptor 3; in [3]; in assay [4]) was over 30 µM in each case. Also, the half-maximal activity concentration (AC50) (at Adenosine receptor A3; at D(3) dopamine receptor; on Adenosine receptor A2a; in [5]) was over 30 µM throughout.

In general, AC50 refers to the concentration at which the activity in the assay is half-maximal.
